Reference: ChEMBL document CHEMBL1134142, “Prodrugs of 3-amido bearing pseudomycin analogues: novel antifungal agents” (Bioorg Med Chem Lett, 2001)
Values after ≈ are worked out from the molar mass of the structure shown. Bridge positions count the residues as written; N and C are the ends. Square brackets hold non-standard residues; d marks the D form. Side chains are listed from the residue outwards. Peptide text beside a SMILES is read from it. * marks the point of attachment. Tetradecanoyl(3R-OH) = CCCCCCCCCCC[C@@H](O)CC(=O)*; Asp(3S-OH) = N[C@H](C(=O)O)[C@H](O)C(=O)O; Thr(4-Cl) = N[C@H](C(=O)O)[C@H](O)CCl; aThr = C[C@H](O)[C@H](N)C(=O)O; dDab = NCC[C@@H](N)C(=O)O; NHCH2CH2NMe2 = CN(C)CCN*; Dab = NCC[C@H](N)C(=O)O; Dhb = C/C=C(\N)C(=O)O; X1 = CCN(CC)CCN*; NHcPr = C1CC1N*

Tests used:
Mus musculus [1] = assay: Compound was evaluated in vivo for its effective dose against Murine candidiasis; type: functional
[2] = The compound was tested for toxicity in tail vein irritation model; No; conditions: mouse
Aspergillus fumigatus = assay: Minimum inhibitory concentration against Aspergillus fumigatus; type: functional
Candida albicans = assay: Minimum inhibitory concentration against Candida albicans.; type: functional
Cryptococcus neoformans [3] = assay: Minimum inhibitory concentration against Cryptococcus neoformans.
Mus musculus [4] = organism: Mus musculus; assay: Maximum tolerated dose against tail vein irritation determined by dose elevation study; type: functional
Mus musculus [5] = assay: (§1) Compound was evaluated in vivo for its effective dose against cryptococosis; type: functional
Cryptococcus neoformans [6] = assay: as §1; type: functional
[7] = The compound was tested for toxicity in tail vein irritation model; Yes; conditions: mouse

Structure (SMILES) | ED50 (Mus musculus [1]) | Toxicity [2] | MIC (Aspergillus fumigatus) | MIC (Candida albicans) | MIC (Cryptococcus neoformans [3]) | Dose elevation (Mus musculus [4]) | ED50 (Mus musculus [5]) | ED50 (Cryptococcus neoformans [6]) | Toxicity [7]
C/C=C1\NC(=O)[C@H]([C@H](C)O)NC(=O)[C@H](CCNC(=O)OCOC(=O)C(C)(C)C)NC(=O)[C@H](CCCCNC(=O)OCOC(=O)C(C)(C)C)NC(=O)[C@H](CC(=O)NC2CC2)NC(=O)[C@@H](CCNC(=O)OCOC(=O)C(C)(C)C)NC(=O)[C@@H](NC(=O)C[C@H](O)CCCCCCCCCCC)COC(=O)[C@H]([C@H](O)CCl)NC(=O)[C@H]([C@H](O)C(=O)O)NC1=O | < 5 mg/kg | Not toxic |  |  |  |  |  |  | 
C/C=C1\NC(=O)[C@H]([C@H](C)O)NC(=O)[C@H](CCNC(=O)OCOC(=O)C(C)C)NC(=O)[C@H](CCCCNC(=O)OCOC(=O)C(C)C)NC(=O)[C@H](CC(=O)NCCN(CC)CC)NC(=O)[C@@H](CCNC(=O)OCOC(=O)C(C)C)NC(=O)[C@@H](NC(=O)C[C@H](O)CCCCCCCCCCC)COC(=O)[C@H]([C@H](O)CCl)NC(=O)[C@H]([C@H](O)C(=O)O)NC1=O |  | Not toxic | 20 mg/L (≈ 11.5 µM) | 20 mg/L (≈ 11.5 µM) | 20 mg/L (≈ 11.5 µM) |  |  |  | 
C/C=C1\NC(=O)[C@H]([C@H](C)O)NC(=O)[C@H](CCNC(=O)OCOC(=O)C(C)C)NC(=O)[C@H](CCCCNC(=O)OCOC(=O)C(C)C)NC(=O)[C@H](CC(=O)NCCN(C)C)NC(=O)[C@@H](CCNC(=O)OCOC(=O)C(C)C)NC(=O)[C@@H](NC(=O)C[C@H](O)CCCCCCCCCCC)COC(=O)[C@H]([C@H](O)CCl)NC(=O)[C@H]([C@H](O)C(=O)O)NC1=O | 6.6 mg/kg | Not toxic |  |  |  | 125 mg/kg |  |  | 
C/C=C1\NC(=O)[C@H]([C@H](C)O)NC(=O)[C@H](CCN)NC(=O)[C@H](CCCCN)NC(=O)[C@H](CC(=O)NCCN(C)C)NC(=O)[C@@H](CCN)NC(=O)[C@@H](NC(=O)C[C@H](O)CCCCCCCCCCC)COC(=O)[C@H]([C@H](O)CCl)NC(=O)[C@H]([C@H](O)C(=O)O)NC1=O ({Tetradecanoyl(3R-OH)}-S[dDab]D(NHCH2CH2NMe2)K[Dab][aThr][Dhb][Asp(3S-OH)][Thr(4-Cl)]; ester 1-C) | < 5 mg/kg | Not toxic |  |  |  | 50 mg/kg | 2.5 mg/kg |  | 
C/C=C1\NC(=O)[C@H]([C@H](C)O)NC(=O)[C@H](CCN)NC(=O)[C@H](CCCCN)NC(=O)[C@H](CC(=O)NCC(=O)OC)NC(=O)[C@@H](CCN)NC(=O)[C@@H](NC(=O)C[C@H](O)CCCCCCCCCCC)COC(=O)[C@H]([C@H](O)CCl)NC(=O)[C@H]([C@H](O)C(=O)O)NC1=O ({Tetradecanoyl(3R-OH)}-S[dDab]D([Gly-OMe])K[Dab][aThr][Dhb][Asp(3S-OH)][Thr(4-Cl)]; ester 1-C) | < 5 mg/kg | Not toxic |  |  |  | <50 mg/kg | 2.9 mg/kg |  | 
C/C=C1\NC(=O)[C@H]([C@H](C)O)NC(=O)[C@H](CCNC(=O)OCOC(=O)C(C)(C)C)NC(=O)[C@H](CCCCNC(=O)OCOC(=O)C(C)(C)C)NC(=O)[C@H](CC(=O)NCCN(C)C)NC(=O)[C@@H](CCNC(=O)OCOC(=O)C(C)(C)C)NC(=O)[C@@H](NC(=O)C[C@H](O)CCCCCCCCCCC)COC(=O)[C@H]([C@H](O)CCl)NC(=O)[C@H]([C@H](O)C(=O)O)NC1=O | < 5 mg/kg | Not toxic |  |  |  |  | 0.44 mg/kg |  | 
C/C=C1\NC(=O)[C@H]([C@H](C)O)NC(=O)[C@H](CCNC(=O)OCOC(=O)C(C)C)NC(=O)[C@H](CCCCNC(=O)OCOC(=O)C(C)C)NC(=O)[C@H](CC(=O)NC(C)(C)CC)NC(=O)[C@@H](CCNC(=O)OCOC(=O)C(C)C)NC(=O)[C@@H](NC(=O)C[C@H](O)CCCCCCCCCCC)COC(=O)[C@H]([C@H](O)CCl)NC(=O)[C@H]([C@H](O)C(=O)O)NC1=O |  | Not toxic | 20 mg/L (≈ 11.7 µM) | 20 mg/L (≈ 11.7 µM) | 20 mg/L (≈ 11.7 µM) |  |  |  | 
C/C=C1\NC(=O)[C@H]([C@H](C)O)NC(=O)[C@H](CCNC(=O)OCOC(=O)C(C)C)NC(=O)[C@H](CCCCNC(=O)OCOC(=O)C(C)C)NC(=O)[C@H](CC(=O)NC2CC2)NC(=O)[C@@H](CCNC(=O)OCOC(=O)C(C)C)NC(=O)[C@@H](NC(=O)C[C@H](O)CCCCCCCCCCC)COC(=O)[C@H]([C@H](O)CCl)NC(=O)[C@H]([C@H](O)C(=O)O)NC1=O | < 5 mg/kg | Not toxic |  |  |  | 125 mg/kg | 0.56 mg/kg |  | 
C/C=C1\NC(=O)[C@H]([C@H](C)O)NC(=O)[C@H](CCN)NC(=O)[C@H](CCCCN)NC(=O)[C@H](CC(=O)O)NC(=O)[C@@H](CCN)NC(=O)[C@@H](NC(=O)C[C@H](O)CCCCCCCCCCC)COC(=O)[C@H]([C@H](O)CCl)NC(=O)[C@H]([C@H](O)C(=O)O)NC1=O [PSEUDOMYCIN B] ({Tetradecanoyl(3R-OH)}-S[dDab]DK[Dab][aThr][Dhb][Asp(3S-OH)][Thr(4-Cl)]; ester 1-C) |  |  | 20 mg/L (≈ 16.6 µM) | 0.625 mg/L (≈ 0.517 µM) | 0.01 mg/L (≈ 0.00828 µM) | 20 mg/kg |  | 1.8 mg/kg | Active
C/C=C1\NC(=O)[C@H]([C@H](C)O)NC(=O)[C@H](CCN)NC(=O)[C@H](CCCCN)NC(=O)[C@H](CC(=O)NC(C)(C)CC)NC(=O)[C@@H](CCN)NC(=O)[C@@H](NC(=O)C[C@H](O)CCCCCCCCCCC)COC(=O)[C@H]([C@H](O)CCl)NC(=O)[C@H]([C@H](O)C(=O)O)NC1=O |  |  | > 20 mg/L | 0.312 mg/L (≈ 0.244 µM) | < 0.01 mg/L |  |  |  | Active
C/C=C1\NC(=O)[C@H]([C@H](C)O)NC(=O)[C@H](CCN)NC(=O)[C@H](CCCCN)NC(=O)[C@H](CC(N)=O)NC(=O)[C@@H](CCN)NC(=O)[C@@H](NC(=O)C[C@H](O)CCCCCCCCCCC)COC(=O)[C@H]([C@H](O)CCl)NC(=O)[C@H]([C@H](O)C(=O)O)NC1=O ({Tetradecanoyl(3R-OH)}-S[dDab]NK[Dab][aThr][Dhb][Asp(3S-OH)][Thr(4-Cl)]; ester 1-C) |  |  | 10 mg/L (≈ 8.29 µM) | 2.5 mg/L (≈ 2.07 µM) | < 0.01 mg/L |  |  |  | Active
C/C=C1\NC(=O)[C@H]([C@H](C)O)NC(=O)[C@H](CCNC(=O)OCOC(=O)C(C)(C)C)NC(=O)[C@H](CCCCNC(=O)OCOC(=O)C(C)(C)C)NC(=O)[C@H](CC(=O)NCC(=O)OC)NC(=O)[C@@H](CCNC(=O)OCOC(=O)C(C)(C)C)NC(=O)[C@@H](NC(=O)C[C@H](O)CCCCCCCCCCC)COC(=O)[C@H]([C@H](O)CCl)NC(=O)[C@H]([C@H](O)C(=O)O)NC1=O | < 5 mg/kg | Not toxic |  |  |  | 125 mg/kg | > 5 mg/kg |  | 
C/C=C1\NC(=O)[C@H]([C@H](C)O)NC(=O)[C@H](CCN)NC(=O)[C@H](CCCCN)NC(=O)[C@H](CC(=O)NC2CC2)NC(=O)[C@@H](CCN)NC(=O)[C@@H](NC(=O)C[C@H](O)CCCCCCCCCCC)COC(=O)[C@H]([C@H](O)CCl)NC(=O)[C@H]([C@H](O)C(=O)O)NC1=O ({Tetradecanoyl(3R-OH)}-S[dDab]D(NHcPr)K[Dab][aThr][Dhb][Asp(3S-OH)][Thr(4-Cl)]; ester 1-C) | < 5 mg/kg | Not toxic |  |  |  | 50 mg/kg | 2.9 mg/kg |  | 
C/C=C1\NC(=O)[C@H]([C@H](C)O)NC(=O)[C@H](CCNC(=O)OCOC(=O)C(C)C)NC(=O)[C@H](CCCCNC(=O)OCOC(=O)C(C)C)NC(=O)[C@H](CC(N)=O)NC(=O)[C@@H](CCNC(=O)OCOC(=O)C(C)C)NC(=O)[C@@H](NC(=O)C[C@H](O)CCCCCCCCCCC)COC(=O)[C@H]([C@H](O)CCl)NC(=O)[C@H]([C@H](O)C(=O)O)NC1=O |  | Not toxic | 20 mg/L (≈ 12.2 µM) | 20 mg/L (≈ 12.2 µM) | 20 mg/L (≈ 12.2 µM) |  |  |  | 
C/C=C1\NC(=O)[C@H]([C@H](C)O)NC(=O)[C@H](CCNC(=O)OCOC(=O)C(C)C)NC(=O)[C@H](CCCCNC(=O)OCOC(=O)C(C)C)NC(=O)[C@H](CC(=O)NCC(=O)OC)NC(=O)[C@@H](CCNC(=O)OCOC(=O)C(C)C)NC(=O)[C@@H](NC(=O)C[C@H](O)CCCCCCCCCCC)COC(=O)[C@H]([C@H](O)CCl)NC(=O)[C@H]([C@H](O)C(=O)O)NC1=O | < 5 mg/kg | Not toxic |  |  |  | 125 mg/kg |  |  | 
C/C=C1\NC(=O)[C@H]([C@H](C)O)NC(=O)[C@H](CCN)NC(=O)[C@H](CCCCN)NC(=O)[C@H](CC(=O)NCCN(CC)CC)NC(=O)[C@@H](CCN)NC(=O)[C@@H](NC(=O)C[C@H](O)CCCCCCCCCCC)COC(=O)[C@H]([C@H](O)CCl)NC(=O)[C@H]([C@H](O)C(=O)O)NC1=O ({Tetradecanoyl(3R-OH)}-S[dDab]D(X1)K[Dab][aThr][Dhb][Asp(3S-OH)][Thr(4-Cl)]; ester 1-C) |  |  | 10 mg/L (≈ 7.66 µM) | 10 mg/L (≈ 7.66 µM) | < 0.01 mg/L |  |  |  | Active
